Experiments:
[1] = system: 2-epimerase; format: binding, B. anthracis
[2] = biological target: PAK4 (Homo sapiens, UniProt O96013, L310A); format: binding
Sequence of PAK4 (O96013 300-591 L310A limits assumed): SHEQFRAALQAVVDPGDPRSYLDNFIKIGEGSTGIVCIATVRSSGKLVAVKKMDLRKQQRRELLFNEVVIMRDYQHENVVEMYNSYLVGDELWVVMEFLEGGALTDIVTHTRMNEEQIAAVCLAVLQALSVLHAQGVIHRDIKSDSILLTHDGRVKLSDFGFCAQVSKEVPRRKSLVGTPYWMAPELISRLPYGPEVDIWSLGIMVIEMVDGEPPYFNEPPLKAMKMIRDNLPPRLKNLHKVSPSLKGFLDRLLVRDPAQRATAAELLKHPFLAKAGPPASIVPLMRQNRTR

SMILES | competition with UDP-GlcNAc by LO-NMR [1] | binding by competitive LO-NMR [2]
O=S(=O)(CCCn1cc(CCNS(=O)(=O)c2ccc(Br)cc2Cl)nn1)Nc1ccc(Nc2ccc(C(F)(F)F)nn2)cc1 [compound 4] | competitive with UDP-GlcNAc | –
CNC(=O)c1cnn2ccc(C#N)cc12 [compound 5] | – | consistent with binding to the ATP-binding site

— publication PMC9667776 (RSC Medicinal Chemistry, 2022)
